Experimental data from patent US20240294511A1, “SOLID FORM OF INDOLE COMPOUND, PREPARATION METHOD THEREFOR AND USE THEREOF” (KEYTHERA (SUZHOU) BIO-PHARMACEUTICALS CO., LIMITED, priority 2021, published 2024).
Each block holds one compound with its values, some of them ahead of it.

Key:
[1] = Pharmacokinetic test in SD rats; type: in vivo; conditions: rat, blood
Procedure: (§1) A clear solution of crystalline form II of the compound of Formula (1) was prepared in 10% DMSO, 60% PEG 400, and 30% water for injection and administered intravenously to SD rats. An aqueous suspension of crystalline form II of the compound of Formula (1) in 0.5% sodium carboxymethylcellulose (CMC·Na) was prepared and administered orally to SD rats to investigate its pharmacokinetic characteristics.

[2] = Pharmacokinetic test in beagle dogs; type: in vivo; conditions: dog, blood
Procedure: as §1, with “beagle dogs.” for “SD rats.”, “beagle dogs” for “SD rats”

[3] = Mechanical grinding test; type: physicochemical; conditions: 0.5 g ground in a mortar for about 5 minutes
Procedure: (§2) The solid samples obtained in the examples were analyzed for crystalline form using a PANalytical EMPYREAN equipped with a PIXceI^1D detector. The instrument parameters are as follows: scanning range: 3° (2θ) to 40° (2θ); step size: 0.013° (2θ); tube voltage and current are 45 KV and 40 mA, respectively.
0.5 g of crystalline form II was placed in a mortar and ground for about 5 minutes, then the solid was collected for XRPD testing.

[4] = Solid stability test; type: physicochemical; conditions: for Purity - Day 7: 7 days
Procedure: as §2
The HPLC measurements were performed using an Agilent HPLC 1260 series instrument.
Crystalline form II was stored separately at a sealed condition at 60° C. and at 40° C./75% RH for 7 days. The purity of the samples was determined by HPLC before and after storage, and the XRPD patterns were measured.

[5] = Light exposure test; type: physicochemical
Procedure: Crystalline form II of the compound of Formula (1) was placed under conditions of light intensity not less than 1.2×10^6 Lux·hr, with near-ultraviolet energy not less than 200 w·hr/m^2, at 25° C., RH 25% for 30 days. Samples were taken at 0, 5, 10, and 30 days, respectively, to observe changes in sample characteristics, test for drying loss, measure the total impurity content by HPLC, and measure the XRPD patterns of the samples.

[6] = High temperature test; type: physicochemical; conditions: 60° C.
Procedure: (§3) Crystalline form II of the compound of Formula (1) was placed at a high temperature of 60° C. for 30 days. Samples were taken at 0, 5, 10, and 30 days, respectively, to observe changes in sample characteristics, measure specific rotation with a polarimeter, test for drying loss, measure the total impurity content by HPLC, and measure the XRPD patterns of the samples.

[7] = High humidity test; type: physicochemical
Procedure: as §3, with “at 25° C. and 92.5%” for “at a”, “high humidity” for “high temperature of 60° C.”, “characteristics,” for “characteristics, measure specific rotation with a polarimeter,”

[8] = Crystalline form transformation test (heating); type: physicochemical; conditions: slowly heated to 200° C., then cooled to room temperature
Procedure: as §2
Crystalline form IV was slowly heated to 200° C. and then cooled to room temperature. Samples before and after heating were collected for XRPD testing.

clearance ([1]; single intravenous 15 mg/kg, read-out: clearance (CL)): 3.59 mL/min/kg
Vd ([1]; single intravenous 15 mg/kg, read-out: steady-state apparent volume of distribution (Vss)): 1.18 L/kg
AUC(0-t) ([1]; single intravenous 15 mg/kg, solution of crystalline form II in 10% DMSO, 60% PEG 400, 30% water, read-out: drug exposure (AUC0-t)): 78800 ng·h/mL
AUC(0-t) ([1]; single oral 40 mg/kg, suspension of crystalline form II in 0.5% CMC·Na, read-out: exposure (AUC0-t)): 153000 ng·h/mL
Cmax ([1]; single oral 40 mg/kg, suspension of crystalline form II in 0.5% CMC·Na, read-out: maximum blood drug concentration (Cmax)): 27700 ng/mL
clearance ([2]; single intravenous 5 mg/kg, read-out: clearance (CL)): 6.64 mL/min/kg
Vd ([2]; single intravenous 5 mg/kg, read-out: steady-state apparent volume of distribution (Vss)): 1.5 L/kg
AUC(0-t) ([2]; single intravenous 5 mg/kg, solution of crystalline form II in 10% DMSO, 60% PEG 400, 30% water, read-out: drug exposure (AUC0-t)): 12600 ng·h/mL
AUC(0-t) ([2]; single oral 45 mg/kg, suspension of crystalline form II in 0.5% CMC·Na, read-out: exposure (AUC0-t)): 79600 ng·h/mL
Cmax ([2]; single oral 45 mg/kg, suspension of crystalline form II in 0.5% CMC·Na, read-out: maximum blood drug concentration (Cmax)): 32900 ng/mL
SMILES: O=C(NC1(C23CC(C(=O)O)(C2)C3)CC1)c1cccc2ccn(Cc3cc4ccccc4o3)c12 [compound of Formula (1), 3-(1-(1-(benzofuran-2-ylmethyl)-1H-indole-7-carboxamido)cyclopropyl)bicyclo[1.1.1]pentane-1-carboxylic acid]

crystalline form after grinding (XRPD) [3]: remained unchanged
Purity - Day 7 ([4]; HPLC, 40° C./75% RH): 99.4 Area %
Purity at the beginning ([4]; HPLC, before storage): 99.4 Area %
Purity - Day 7 ([4]; HPLC, sealed condition at 60° C.): 99.6 Area %
crystalline form after storage (XRPD) ([4]; sealed at 60° C. and at 40° C./75% RH for 7 days): remained unchanged
crystalline form (XRPD) ([5]; light exposure, 30 days): did not change
new impurities formed ([5]; light exposure, 30 days, HPLC): ≤ 0.05%
changes in moisture and content compared to day 0 ([5]; light not less than 1.2×10^6 Lux·hr, near-UV not less than 200 w·hr/m^2, 25° C., RH 25%, 30 days): no significant changes
stability under light exposure conditions ([5]; total illumination not less than 1.2×10^6 Lux·hr, near-UV not less than 200 w·hr/m^2): stable
stability under high-temperature conditions [6]: stable
differences in appearance, moisture, content and crystalline form compared to day 0 ([6]; 30 days): no significant differences
new impurities formed ([6]; 30 days, HPLC): ≤ 0.05%
differences in appearance, moisture, content and crystalline form compared to day 0 ([7]; 25° C., 92.5% RH, 30 days): no significant differences
water absorption ([7]; 25° C., 92.5% RH, 30 days): 0.03%
new impurities formed ([7]; 25° C., 92.5% RH, 30 days, HPLC): ≤ 0.05%
stability under high humidity conditions ([7]; RH 92.5%): stable
SMILES: O=C(NC1(C23CC(C(=O)O)(C2)C3)CC1)c1cccc2ccn(Cc3cc4ccccc4o3)c12 [Crystalline form II, 3-(1-(1-(benzofuran-2-ylmethyl)-1H-indole-7-carboxamido)cyclopropyl)bicyclo[1.1.1]pentane-1-carboxylic acid]

crystalline form after heating (XRPD) [8]: transformed into crystalline form II
SMILES: O=C(NC1(C23CC(C(=O)O)(C2)C3)CC1)c1cccc2ccn(Cc3cc4ccccc4o3)c12 [Crystalline form IV, 3-(1-(1-(benzofuran-2-ylmethyl)-1H-indole-7-carboxamido)cyclopropyl)bicyclo[1.1.1]pentane-1-carboxylic acid]
